# Assay results from ChEMBL document CHEMBL1909046, “DrugMatrix in vitro pharmacology data”.
# Experiments:
# [1] = target: Beta-2 adrenergic receptor (Homo sapiens, UniProt P07550); test: DRUGMATRIX: Adrenergic beta2 radioligand binding (ligand: [3H] CGP-12177); type: cell membranes, CHO, Membrane; settings: cho; Not Active = under 50% inhibition at 10 µM
# [2] = target: Mitogen-activated protein kinase 14 (Homo sapiens, UniProt Q16539); set-up: species or system Escherichia coli;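 also: inhibition of p38alpha enzyme activity in a biochemical kinase assay, with myelin basic protein serving as substrate; in other assays of this panel Not Active means under 50% inhibition at 10 µM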
# Sequence of Mitogen-activated protein kinase 14 (Q16539 whole entry): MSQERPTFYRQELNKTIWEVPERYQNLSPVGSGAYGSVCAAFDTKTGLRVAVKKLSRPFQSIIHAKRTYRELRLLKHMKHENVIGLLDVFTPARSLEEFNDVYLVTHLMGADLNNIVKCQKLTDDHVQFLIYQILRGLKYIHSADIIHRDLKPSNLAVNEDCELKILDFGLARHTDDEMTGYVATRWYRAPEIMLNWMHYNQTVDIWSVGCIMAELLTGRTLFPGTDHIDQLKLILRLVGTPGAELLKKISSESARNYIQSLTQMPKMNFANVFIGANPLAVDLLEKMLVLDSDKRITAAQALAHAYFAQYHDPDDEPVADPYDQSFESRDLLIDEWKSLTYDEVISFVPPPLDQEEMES
# Carbonic anhydrase 2 = Carbonic anhydrase 2 (Homo sapiens, UniProt P00918); test: DRUGMATRIX: Carbonic Anhydrase II enzyme inhibition (substrate: 4-Nitrophenyl acetate (4-NPA)); type: tissue-based, Erythrocyte; settings: erythrocyte; Not Active = under 50% inhibition at 10 µM
# [3] = DRUGMATRIX: Glutamate, NMDA, Agonism radioligand binding (ligand: [3H] CGP-39653); type: cell membranes, Rattus norvegicus, Wistar, Cerebral cortex, Membrane; settings: Not Active = under 50% inhibition at 10 µM
# [4] = target: Protein phosphatase 3 catalytic subunit alpha (Homo sapiens, UniProt Q08209); set-up: species or system Escherichia coli;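 also: inhibition of calcineurin (PP2B) enzyme activity, measured with DiFMUP as the substrate; in other assays of this panel Not Active means under 50% inhibition at 10 µM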
# [5] = target: Voltage-gated inwardly rectifying potassium channel KCNH2 (Homo sapiens, UniProt Q12809); settings: hek293; also: in other assays of this panel Not Active means under 50% inhibition at 10 µM
# Sequence of Voltage-gated inwardly rectifying potassium channel KCNH2 (Q12809 whole entry): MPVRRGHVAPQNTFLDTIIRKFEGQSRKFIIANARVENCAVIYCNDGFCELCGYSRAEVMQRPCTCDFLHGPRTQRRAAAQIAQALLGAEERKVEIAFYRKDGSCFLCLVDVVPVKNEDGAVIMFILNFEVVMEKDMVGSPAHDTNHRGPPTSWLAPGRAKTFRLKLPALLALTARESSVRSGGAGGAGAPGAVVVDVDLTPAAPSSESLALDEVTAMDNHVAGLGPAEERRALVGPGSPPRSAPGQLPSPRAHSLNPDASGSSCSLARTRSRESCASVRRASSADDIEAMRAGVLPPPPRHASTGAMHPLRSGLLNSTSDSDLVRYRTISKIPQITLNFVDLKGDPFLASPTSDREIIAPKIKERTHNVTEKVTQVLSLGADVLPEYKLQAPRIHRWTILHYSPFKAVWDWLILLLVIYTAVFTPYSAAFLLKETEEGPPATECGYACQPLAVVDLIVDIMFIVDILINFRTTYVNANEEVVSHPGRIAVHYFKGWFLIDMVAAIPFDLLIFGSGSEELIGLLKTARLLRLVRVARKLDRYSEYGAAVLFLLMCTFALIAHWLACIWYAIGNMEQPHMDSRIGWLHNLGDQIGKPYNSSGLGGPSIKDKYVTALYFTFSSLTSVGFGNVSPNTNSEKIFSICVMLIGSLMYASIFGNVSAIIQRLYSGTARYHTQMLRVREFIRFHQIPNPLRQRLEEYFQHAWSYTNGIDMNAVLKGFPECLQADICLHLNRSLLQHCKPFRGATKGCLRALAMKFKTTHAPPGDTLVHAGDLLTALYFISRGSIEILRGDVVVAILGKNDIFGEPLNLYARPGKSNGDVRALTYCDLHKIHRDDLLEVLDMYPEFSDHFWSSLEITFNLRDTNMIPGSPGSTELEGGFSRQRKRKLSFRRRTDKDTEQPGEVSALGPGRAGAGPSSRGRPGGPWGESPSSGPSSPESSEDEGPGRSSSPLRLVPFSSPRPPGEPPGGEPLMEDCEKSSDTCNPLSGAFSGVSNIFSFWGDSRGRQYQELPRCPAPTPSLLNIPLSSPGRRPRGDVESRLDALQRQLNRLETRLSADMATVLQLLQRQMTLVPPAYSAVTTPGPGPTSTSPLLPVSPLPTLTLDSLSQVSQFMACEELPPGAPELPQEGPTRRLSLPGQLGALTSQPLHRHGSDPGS
# [6] = target: T1, C-X-C chemokine receptor type 1 (Homo sapiens, UniProt P25024); also: in other assays of this panel Not Active means under 50% inhibition at 10 µM
# T1 sequence (P25024 whole entry): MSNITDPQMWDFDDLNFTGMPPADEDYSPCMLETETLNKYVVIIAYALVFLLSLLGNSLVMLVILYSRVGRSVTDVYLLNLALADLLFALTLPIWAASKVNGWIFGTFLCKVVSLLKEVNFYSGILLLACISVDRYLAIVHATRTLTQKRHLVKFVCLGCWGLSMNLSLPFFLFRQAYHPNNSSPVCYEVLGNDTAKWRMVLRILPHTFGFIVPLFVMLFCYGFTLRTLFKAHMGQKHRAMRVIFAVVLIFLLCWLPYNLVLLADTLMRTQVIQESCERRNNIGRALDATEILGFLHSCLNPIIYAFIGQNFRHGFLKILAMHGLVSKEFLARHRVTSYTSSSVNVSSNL
# Sequence of Beta-2 adrenergic receptor (P07550 whole entry): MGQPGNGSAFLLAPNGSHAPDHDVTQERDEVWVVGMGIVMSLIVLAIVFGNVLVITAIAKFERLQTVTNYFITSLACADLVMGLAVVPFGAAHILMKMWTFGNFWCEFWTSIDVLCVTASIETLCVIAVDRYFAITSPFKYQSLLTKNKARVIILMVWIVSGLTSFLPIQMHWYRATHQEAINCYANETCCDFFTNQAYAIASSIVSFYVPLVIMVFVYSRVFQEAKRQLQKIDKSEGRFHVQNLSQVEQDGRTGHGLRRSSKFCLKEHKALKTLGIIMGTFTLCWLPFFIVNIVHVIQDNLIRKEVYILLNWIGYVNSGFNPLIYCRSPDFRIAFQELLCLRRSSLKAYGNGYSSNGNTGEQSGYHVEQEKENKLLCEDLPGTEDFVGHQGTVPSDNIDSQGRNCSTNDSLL
SMILES,IC50 [1],IC50 [2],IC50 (Carbonic anhydrase 2),IC50 [3],Ki [3],IC50 [4],IC50 [5],Ki [5],IC50 [6],IC50 ([2]; read-out: IC50) [µM]
CCOc1nc2cccc(C(=O)O)c2n1Cc1ccc(-c2ccccc2-c2nnn[nH]2)cc1,Not Active,Not Active,Not Active,Not Active,Not Active,Not Active,Not Active,Not Active,Not Active,–
O=C(O)CCCc1cccs1,Not Active,Not Active,Not Active,Not Active,Not Active,Not Active,Not Active,Not Active,Not Active,–
COc1ccccc1N,Not Active,Not Active,Not Active,Not Active,Not Active,Not Active,Not Active,Not Active,Not Active,–
O=C(c1ccccc1F)N1CCC(Cc2ccccc2)CC1,Not Active,–,Not Active,Not Active,Not Active,Not Active,Not Active,Not Active,Not Active,0.537
Cc1c(O)cccc1C(=O)N[C@@H](CSc1ccccc1)[C@H](O)CN1C[C@H]2CCCC[C@H]2C[C@H]1C(=O)NC(C)(C)C,Not Active,–,Not Active,Not Active,Not Active,Not Active,Not Active,Not Active,Not Active,18.2
CC(O)COC[C@H]1O[C@@H]2O[C@H]3[C@H](O)[C@@H](O)[C@@H](O[C@H]4[C@H](O)[C@@H](O)[C@@H](O[C@H]5[C@H](O)[C@@H](O)[C@@H](O[C@H]6[C@H](O)[C@@H](O)[C@@H](O[C@H]7[C@H](O)[C@@H](O)[C@@H](O[C@H]8[C@H](O)[C@@H](O)[C@@H](O[C@H]1[C@H](O)[C@H]2O)O[C@@H]8COCC(C)O)O[C@@H]7COCC(C)O)O[C@@H]6COCC(C)O)O[C@@H]5COCC(C)O)O[C@@H]4COCC(C)O)O[C@@H]3COCC(C)O (stereo partly drawn) [2-HYDROXYPROPYL-BETA-CYCLODEXTRIN],Not Active,Not Active,Not Active,Not Active,Not Active,Not Active,Not Active,Not Active,Not Active,–
NC(=O)c1cccc(N)c1 [3-AMINOBENZAMIDE],Not Active,Not Active,Not Active,Not Active,Not Active,Not Active,Not Active,Not Active,Not Active,–
C[C@H]1O[C@H](O[C@H]2[C@H](O)[C@@H](O)[C@@H](O[C@H]3[C@H](O)[C@@H](O)C(O)O[C@@H]3CO)O[C@@H]2CO)[C@H](O)[C@@H](O)[C@@H]1N[C@H]1C=C(CO)[C@@H](O)[C@H](O)[C@H]1O (stereo partly drawn) [ACARBOSE],Not Active,Not Active,Not Active,Not Active,Not Active,Not Active,Not Active,Not Active,Not Active,–
CC[C@H]1[C@@H]2C[C@H]3[C@@H]4N(C)c5ccccc5[C@]45C[C@@H]([C@@H]2[C@H]5O)N3[C@@H]1O [AJMALINE],Not Active,Not Active,Not Active,Not Active,Not Active,Not Active,Not Active,Not Active,Not Active,–
NC12CC3CC(CC(C3)C1)C2 [AMANTADINE],Not Active,Not Active,Not Active,Not Active,Not Active,Not Active,Not Active,Not Active,Not Active,–
NCCCNCCSP(=O)(O)O [AMIFOSTINE],Not Active,Not Active,Not Active,Not Active,Not Active,Not Active,Not Active,Not Active,Not Active,–
CN(C)CCC=C1c2ccccc2CCc2ccccc21 [AMITRIPTYLINE],Not Active,Not Active,Not Active,Not Active,Not Active,Not Active,–,–,Not Active,–
CC(=O)Oc1ccccc1C(=O)O [ASPIRIN],Not Active,Not Active,Not Active,Not Active,Not Active,Not Active,Not Active,Not Active,Not Active,–
CC(C)c1c(C(=O)Nc2ccccc2)c(-c2ccccc2)c(-c2ccc(F)cc2)n1CC[C@@H](O)C[C@@H](O)CC(=O)O [ATORVASTATIN],Not Active,Not Active,Not Active,Not Active,Not Active,Not Active,–,–,Not Active,–
CC(=O)OC[C@H]1O[C@@H](n2ncc(=O)[nH]c2=O)[C@H](OC(C)=O)[C@@H]1OC(C)=O [AZARIBINE],Not Active,Not Active,Not Active,Not Active,Not Active,Not Active,Not Active,Not Active,Not Active,–
C[C@H]1[C@H](NC(=O)/C(=N\OC(C)(C)C(=O)O)c2csc(N)n2)C(=O)N1S(=O)(=O)O [AZTREONAM],Not Active,Not Active,Not Active,Not Active,Not Active,Not Active,Not Active,Not Active,Not Active,–
O=C(O)CCNC(=O)c1ccc(/N=N/c2ccc(O)c(C(=O)O)c2)cc1 [BALSALAZIDE],Not Active,Not Active,Not Active,Not Active,Not Active,Not Active,Not Active,Not Active,Not Active,–
COc1cc(OC)c(C(=O)CCCN2CCCC2)c(OC)c1 [BUFLOMEDIL],Not Active,Not Active,Not Active,Not Active,Not Active,Not Active,Not Active,Not Active,Not Active,–
Cn1c(=O)c2c(ncn2C)n(C)c1=O [CAFFEINE],Not Active,Not Active,Not Active,Not Active,Not Active,Not Active,Not Active,Not Active,Not Active,–
ClC(Cl)(Cl)Cl [CARBON TETRACHLORIDE],Not Active,Not Active,Not Active,Not Active,Not Active,Not Active,Not Active,Not Active,Not Active,–
CO/N=C(\C(=O)N[C@@H]1C(=O)N2C(C(=O)O)=C(COC(C)=O)CS[C@H]12)c1csc(N)n1 [CEFOTAXIME],Not Active,Not Active,Not Active,Not Active,Not Active,Not Active,Not Active,Not Active,Not Active,–
CNC1=Nc2ccc(Cl)cc2C(c2ccccc2)=[N+]([O-])C1 [CHLORDIAZEPOXIDE],Not Active,Not Active,Not Active,Not Active,Not Active,Not Active,Not Active,Not Active,Not Active,–
Cc1cc(O)cc(C)c1Cl [CHLOROXYLENOL],Not Active,Not Active,Not Active,Not Active,Not Active,Not Active,Not Active,Not Active,Not Active,–
C#C[C@]1(O)CC[C@H]2[C@@H]3CCC4=CC(=O)CC[C@]4(C)[C@H]3CC[C@@]21C [ETHISTERONE],Not Active,Not Active,Not Active,Not Active,Not Active,Not Active,–,–,Not Active,–
CC(C)(C(=O)O)c1ccc(C(O)CCCN2CCC(C(O)(c3ccccc3)c3ccccc3)CC2)cc1 (stereo not drawn) [FEXOFENADINE],Not Active,Not Active,Not Active,Not Active,Not Active,Not Active,–,–,Not Active,–
CCn1cc(C(=O)O)c(=O)c2cc(F)c(N3CCNC(C)C3)c(F)c21 (stereo not drawn) [LOMEFLOXACIN],Not Active,Not Active,Not Active,Not Active,Not Active,Not Active,–,–,Not Active,–
CN1CCCC(CN2c3ccccc3Sc3ccccc32)C1 (stereo not drawn) [MEPAZINE],Not Active,Not Active,Not Active,–,–,Not Active,Not Active,Not Active,Not Active,–
N=C(N)c1ccc(OCCCCCOc2ccc(C(=N)N)cc2)cc1 [PENTAMIDINE],Not Active,Not Active,Not Active,Not Active,Not Active,Not Active,–,–,Not Active,–
